From PubChem BioAssay AID2060624 (Molecular Pharmacology Branch, DTP, NCI, 2025)

Tested on: 217524-143-R1-J4-PDC spheroids with HUVEC/MSC, viability
Test: Anticancer human tumor 217524-143-R1-J4-PDC patient-derived pancreatic carcinoma cell line growth inhibition [CLK]
Conditions: for IC50: curve of first compound; for viability, T/C: stronger effect = lower value
Summary of the method: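 Patient-derived tumor cells grown as complex spheroids with HUVEC endothelial cells and mesenchymal stem cells, treated with drug combinations. Concentrations descend in half-log steps from near clinical Cmax, or from 10 microM if Cmax unknown.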

[1] = second compound 0.0316 µM, first compound 0.0316 µM
[2] = second compound 0.0316 µM, first compound 0.1 µM
[3] = second compound 0.0316 µM, first compound 0.316 µM
[4] = second compound 0.0316 µM, first compound 1 µM
[5] = second compound 0.0316 µM, first compound 3.16 µM
[6] = second compound 0.0316 µM, first compound 10 µM
[7] = second compound 0.1 µM, first compound 0.0316 µM
[8] = second compound 0.1 µM, first compound 0.1 µM
[9] = second compound 0.1 µM, first compound 0.316 µM
[10] = second compound 0.1 µM, first compound 1 µM
[11] = second compound 0.1 µM, first compound 3.16 µM
[12] = second compound 0.1 µM, first compound 10 µM
[13] = second compound 0.316 µM, first compound 0.0316 µM
[14] = second compound 0.316 µM, first compound 0.1 µM
[15] = second compound 0.316 µM, first compound 0.316 µM
[16] = second compound 0.316 µM, first compound 1 µM
[17] = second compound 0.316 µM, first compound 3.16 µM
[18] = second compound 0.316 µM, first compound 10 µM
[19] = second compound 1 µM, first compound 0.0316 µM
[20] = second compound 1 µM, first compound 0.1 µM
[21] = second compound 1 µM, first compound 0.316 µM
[22] = second compound 1 µM, first compound 1 µM
[23] = second compound 1 µM, first compound 3.16 µM
[24] = second compound 1 µM, first compound 10 µM
[25] = second compound 3.16 µM, first compound 0.0316 µM
[26] = second compound 3.16 µM, first compound 0.1 µM
[27] = second compound 3.16 µM, first compound 0.316 µM
[28] = second compound 3.16 µM, first compound 1 µM
[29] = second compound 3.16 µM, first compound 3.16 µM
[30] = second compound 3.16 µM, first compound 10 µM
[31] = second compound 10 µM, first compound 0.0316 µM
[32] = second compound 10 µM, first compound 0.1 µM
[33] = second compound 10 µM, first compound 0.316 µM
[34] = second compound 10 µM, first compound 1 µM
[35] = second compound 10 µM, first compound 3.16 µM
[36] = second compound 10 µM, first compound 10 µM
[37] = second compound 0.0316 µM, first compound 0.00316 µM
[38] = second compound 0.0316 µM, first compound 0.01 µM
[39] = second compound 0.1 µM, first compound 0.00316 µM
[40] = second compound 0.1 µM, first compound 0.01 µM
[41] = second compound 0.316 µM, first compound 0.00316 µM
[42] = second compound 0.316 µM, first compound 0.01 µM
[43] = second compound 1 µM, first compound 0.00316 µM
[44] = second compound 1 µM, first compound 0.01 µM
[45] = second compound 3.16 µM, first compound 0.00316 µM
[46] = second compound 3.16 µM, first compound 0.01 µM
[47] = second compound 10 µM, first compound 0.00316 µM
[48] = second compound 10 µM, first compound 0.01 µM
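Also: spheroids exposed to agents for seven days before reading.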
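For viability, T/C in this document: 100% = DMSO vehicle control viability.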

C#Cc1c(F)ccc2cc(O)cc(-c3ncc4c(N5CC6CCC(C5)N6)nc(OCC56CCCN5CC(F)C6)nc4c3F)c12 (stereo not given) + CNC(=O)c1ccc(Nc2nc(OC3CCCC3)c3c(-c4ccc5nc(C)oc5c4)c[nH]c3n2)c(OC)c1
IC50 (second compound 0.0316 µM): > 10000 nM | IC50 (second compound 0.1 µM): < 31.6 nM | IC50 (second compound 0.316 µM): < 31.6 nM | IC50 (second compound 1 µM): < 31.6 nM | IC50 (second compound 3.16 µM): < 31.6 nM | IC50 (second compound 10 µM): < 31.6 nM | viability, T/C [1]: 84.3% | viability, T/C [2]: 98.2% | viability, T/C [3]: 90.8% | viability, T/C [4]: 101% | viability, T/C [5]: 89.4% | viability, T/C [6]: 69% | viability, T/C [7]: 47.5% | viability, T/C [8]: 39.2% | viability, T/C [9]: 53.6% | viability, T/C [10]: 42.4% | viability, T/C [11]: 44.5% | viability, T/C [12]: 30.8% | viability, T/C [13]: 38.5% | viability, T/C [14]: 50.3% | viability, T/C [15]: 38.2% | viability, T/C [16]: 40.9% | viability, T/C [17]: 38.7% | viability, T/C [18]: 24.3% | viability, T/C [19]: 33.1% | viability, T/C [20]: 30% | viability, T/C [21]: 26.1% | viability, T/C [22]: 35.5% | viability, T/C [23]: 24.5% | viability, T/C [24]: 18.9% | viability, T/C [25]: 29.1% | viability, T/C [26]: 29.5% | viability, T/C [27]: 32.6% | viability, T/C [28]: 26.7% | viability, T/C [29]: 26.2% | viability, T/C [30]: 19.4% | viability, T/C [31]: 26.3% | viability, T/C [32]: 24.2% | viability, T/C [33]: 27.8% | viability, T/C [34]: 23.4% | viability, T/C [35]: 24.9% | viability, T/C [36]: 19.7%

CC(CO)NC(=O)c1cc(-c2ccc(Cl)cc2)nn(-c2cnn(C)c2)c1=O (stereo not given) + CNC(=O)c1ccc(Nc2nc(OC3CCCC3)c3c(-c4ccc5nc(C)oc5c4)c[nH]c3n2)c(OC)c1
IC50 (second compound 0.0316 µM): > 10000 nM | IC50 (second compound 0.1 µM): < 31.6 nM | IC50 (second compound 0.316 µM): < 31.6 nM | IC50 (second compound 1 µM): < 31.6 nM | IC50 (second compound 3.16 µM): < 31.6 nM | IC50 (second compound 10 µM): < 31.6 nM | viability, T/C [1]: 101% | viability, T/C [2]: 81.4% | viability, T/C [3]: 86.5% | viability, T/C [4]: 105% | viability, T/C [5]: 106% | viability, T/C [6]: 84.2% | viability, T/C [7]: 44.8% | viability, T/C [8]: 42.2% | viability, T/C [9]: 46.1% | viability, T/C [10]: 51.3% | viability, T/C [11]: 47.4% | viability, T/C [12]: 43.5% | viability, T/C [13]: 48.2% | viability, T/C [14]: 39.8% | viability, T/C [15]: 44.8% | viability, T/C [16]: 40.1% | viability, T/C [17]: 38.9% | viability, T/C [18]: 38.7% | viability, T/C [19]: 26.2% | viability, T/C [20]: 30.1% | viability, T/C [21]: 26.2% | viability, T/C [22]: 32.7% | viability, T/C [23]: 28.3% | viability, T/C [24]: 25% | viability, T/C [25]: 33.1% | viability, T/C [26]: 26.2% | viability, T/C [27]: 32.4% | viability, T/C [28]: 31.8% | viability, T/C [29]: 28.8% | viability, T/C [30]: 20.9% | viability, T/C [31]: 31.3% | viability, T/C [32]: 25.7% | viability, T/C [33]: 24.1% | viability, T/C [34]: 24.4% | viability, T/C [35]: 24.7% | viability, T/C [36]: 20.6%

CC(Nc1ccc2c(c1)OCCn1cc(N3C(=O)OCC3C(F)F)nc1-2)C(N)=O (stereo not given) + CNC(=O)c1ccc(Nc2nc(OC3CCCC3)c3c(-c4ccc5nc(C)oc5c4)c[nH]c3n2)c(OC)c1
IC50 (second compound 0.0316 µM): 55.8 nM | IC50 (second compound 0.1 µM): < 31.6 nM | IC50 (second compound 0.316 µM): < 31.6 nM | IC50 (second compound 1 µM): < 31.6 nM | IC50 (second compound 3.16 µM): < 31.6 nM | IC50 (second compound 10 µM): < 31.6 nM | viability, T/C [1]: 63.3% | viability, T/C [2]: 36.5% | viability, T/C [3]: 15.6% | viability, T/C [4]: 8.68% | viability, T/C [5]: 6.12% | viability, T/C [6]: 4.83% | viability, T/C [7]: 31.9% | viability, T/C [8]: 20.7% | viability, T/C [9]: 11.4% | viability, T/C [10]: 7.98% | viability, T/C [11]: 5.53% | viability, T/C [12]: 4.2% | viability, T/C [13]: 24.7% | viability, T/C [14]: 13.8% | viability, T/C [15]: 7.07% | viability, T/C [16]: 4.72% | viability, T/C [17]: 3.59% | viability, T/C [18]: 3.01% | viability, T/C [19]: 16.8% | viability, T/C [20]: 10.2% | viability, T/C [21]: 5.1% | viability, T/C [22]: 3.22% | viability, T/C [23]: 3.05% | viability, T/C [24]: 2.02% | viability, T/C [25]: 17.7% | viability, T/C [26]: 9.35% | viability, T/C [27]: 4.79% | viability, T/C [28]: 3.52% | viability, T/C [29]: 2.61% | viability, T/C [30]: 2.12% | viability, T/C [31]: 18.6% | viability, T/C [32]: 10.6% | viability, T/C [33]: 6.17% | viability, T/C [34]: 2.83% | viability, T/C [35]: 3.46% | viability, T/C [36]: 2.14%

CCN1CCN(Cc2ccc(Nc3ncc(F)c(-c4cc(F)c5nc(C)n(C(C)C)c5c4)n3)nc2)CC1 + CNC(=O)c1ccc(Nc2nc(OC3CCCC3)c3c(-c4ccc5nc(C)oc5c4)c[nH]c3n2)c(OC)c1
IC50 (second compound 0.0316 µM): 133 nM | IC50 (second compound 0.1 µM): < 3.16 nM | IC50 (second compound 0.316 µM): < 3.16 nM | IC50 (second compound 1 µM): < 3.16 nM | IC50 (second compound 3.16 µM): < 3.16 nM | IC50 (second compound 10 µM): < 3.16 nM | viability, T/C [37]: 84.8% | viability, T/C [38]: 71.2% | viability, T/C [1]: 68.4% | viability, T/C [2]: 52.4% | viability, T/C [3]: 40% | viability, T/C [4]: 38.4% | viability, T/C [39]: 50.3% | viability, T/C [40]: 42% | viability, T/C [7]: 35.6% | viability, T/C [8]: 27.8% | viability, T/C [9]: 37.2% | viability, T/C [10]: 36% | viability, T/C [41]: 46.8% | viability, T/C [42]: 34.8% | viability, T/C [13]: 30.8% | viability, T/C [14]: 25.7% | viability, T/C [15]: 30.5% | viability, T/C [16]: 32% | viability, T/C [43]: 28.4% | viability, T/C [44]: 26.2% | viability, T/C [19]: 28.5% | viability, T/C [20]: 25.2% | viability, T/C [21]: 25.2% | viability, T/C [22]: 26.3% | viability, T/C [45]: 25.3% | viability, T/C [46]: 24.8% | viability, T/C [25]: 23.9% | viability, T/C [26]: 21.1% | viability, T/C [27]: 21.6% | viability, T/C [28]: 22.2% | viability, T/C [47]: 24.3% | viability, T/C [48]: 23% | viability, T/C [31]: 23.8% | viability, T/C [32]: 21.9% | viability, T/C [33]: 21.4% | viability, T/C [34]: 26.4%

COc1c(OCCCN2CCOCC2)ccc2c3n(c(=NC(=O)c4cnc(N)nc4)nc12)CCN3 + CNC(=O)c1ccc(Nc2nc(OC3CCCC3)c3c(-c4ccc5nc(C)oc5c4)c[nH]c3n2)c(OC)c1
IC50 (second compound 0.0316 µM): 6.97 nM | IC50 (second compound 0.1 µM): < 3.16 nM | IC50 (second compound 0.316 µM): < 3.16 nM | IC50 (second compound 1 µM): < 3.16 nM | IC50 (second compound 3.16 µM): < 3.16 nM | IC50 (second compound 10 µM): < 3.16 nM | viability, T/C [37]: 74.9% | viability, T/C [38]: 38.7% | viability, T/C [1]: 10.4% | viability, T/C [2]: 4.29% | viability, T/C [3]: 2.9% | viability, T/C [4]: 2.31% | viability, T/C [39]: 36.7% | viability, T/C [40]: 21.8% | viability, T/C [7]: 9.86% | viability, T/C [8]: 3.54% | viability, T/C [9]: 3.16% | viability, T/C [10]: 2.09% | viability, T/C [41]: 22.1% | viability, T/C [42]: 14.2% | viability, T/C [13]: 7.78% | viability, T/C [14]: 3.17% | viability, T/C [15]: 2.58% | viability, T/C [16]: 2.49% | viability, T/C [43]: 19.9% | viability, T/C [44]: 10.9% | viability, T/C [19]: 4.57% | viability, T/C [20]: 3.24% | viability, T/C [21]: 1.78% | viability, T/C [22]: 1.77% | viability, T/C [45]: 21% | viability, T/C [46]: 11.8% | viability, T/C [25]: 5.14% | viability, T/C [26]: 2.24% | viability, T/C [27]: 1.69% | viability, T/C [28]: 1.26% | viability, T/C [47]: 16.7% | viability, T/C [48]: 9.36% | viability, T/C [31]: 5% | viability, T/C [32]: 2.58% | viability, T/C [33]: 1.86% | viability, T/C [34]: 1.37%
